The source of these data is patent US10138230B2, “Autotaxin inhibitors” (CANCER RESEARCH TECHNOLOGY LIMITED, priority 2015, dated 2018).

In this assay the target is human recombinant ATX (Homo sapiens (Human), UniProt Q13822). Description: Autotaxin (ATX) activity Quanta Red assay. In kind it is biochemical. As to conditions: 15 μM Rac-1-Palmitoyl-glycero-3-phosphocholine, 2 hours room temperature, determined in duplicate. How it is done:
The ATX enzyme assay (Quanta Red assay) described in accompanying Example section may be used to measure the pharmacological effects of the compounds of the present invention.
Autotaxin (ATX) Activity Quanta Red Assay
Measuring ATX activity using an enzyme coupled Quanta Red assay (Thermo Scientific—Pierce Protein Research Products, Product #15159) was determined as follows. 8 μL human recombinant ATX (final concentration 0.8 μg/mL) in 1× Assay buffer containing 50 mM Tris-HCl (pH 8.0), 5 mM CaCl2 was added to an opaque black flat-bottom 384-well plate (Corning, #3575) containing 2 μL test compound in 40% DMSO (4% final DMSO concentration). 10 μL of Quanta Red, Horseradish peroxidase (HRP), Choline Oxidase (CO), Rac-1-Palmitoyl-glycero-3-phosphocholine solution (final concentration 1:250 for Quanta Red, 0.5units/ml HRP, 0.5units/ml CO, 15 μM Rac-1-Palmitoyl-glycero-3-phosphocholine) in 1× assay buffer (as described previously) was added to each well to start the reaction and the plate was incubated at room temperature for 2 hours. The reaction was stopped after 2 hours with a 20 μL addition of Quanta Red Stop solution (1:20 dilution in distilled water). The above-described mixture with DMSO alone was used as a positive control whereas that with DMSO alone without ATX was taken as a negative control.
For each test compound, ten concentrations were measured covering a range of 6.1 nM to 120 μM to determine IC50 values. The top concentration was decreased to 1.2 μM when a test compound's IC50 value was evaluated in low nanomolar range. Fluorescence was determined in a BMG Labtech Pherastar plus plate reader ([…]). Data were analysed using Excel fit software. IC50 values were determined in duplicate.
`CCN(CC)Cc1ccc(N2CC(C(=O)Nc3nnc(CCc4ccc(Cl)cc4)s3)CC2=O)cc1` (centres unmarked) [Compound F98, N-[5-[2-(4-chlorophenyl)ethyl]-1,3,4-thiadiazol-2-yl]-1-[4-(diethylaminomethyl)phenyl]-5-oxo-pyrrolidine-3-carboxamide]: the 50% inhibitory concentration (IC50) stood at 2 nM.
As for `CN(Cc1ccc(N2C[C@@H](C(=O)Nc3nnc(CCc4ccc(Cl)cc4)s3)CC2=O)cc1)C1COC1` [Compound F88, (3S)-N-[5-[2-(4-chlorophenyl)ethyl]-1,3,4-thiadiazol-2-yl]-1-[4-[[methyl(oxetan-3-yl)amino]methyl]phenyl]-5-oxo-pyrrolidine-3-carboxamide], the concentration for half-maximal inhibition (IC50) amounted to 1 nM.
As for `O=C(NC1CC(=O)N(c2ccc(CN3CCCCC3)cc2)C1)c1nnc(CCc2ccc(F)cc2)s1` (centres unmarked) [Compound F168, 5-[2-(4-fluorophenyl)ethyl]-N-[5-oxo-1-[4-(1-piperidylmethyl)phenyl]pyrrolidin-3-yl]-1,3,4-thiadiazole-2-carboxamide], the half-maximal inhibitory concentration (IC50) was 17 nM.
Regarding `O=C(Nc1nnc(CCC2CCCO2)s1)[C@H]1CC(=O)N(c2ccc(CN3CCOCC3)cc2)C1` (stereo partly drawn) [Compound F186, (3S)-1-[4-(morpholinomethyl)phenyl]-5-oxo-N-[5-(2-tetrahydrofuran-2-ylethyl)-1,3,4-thiadiazol-2-yl]pyrrolidine-3-carboxamide], the IC50 came out at 134 nM.
In the case of `O=C(NC1CC(=O)N(c2ccc(CN3CCCOCC3)cc2)C1)c1nnc(CCc2ccc(Cl)cc2)s1` (centres unmarked) [Compound F129, 5-[2-(4-chlorophenyl)ethyl]-N-[1-[4-(1,4-oxazepan-4-ylmethyl)phenyl]-5-oxo-pyrrolidin-3-yl]-1,3,4-thiadiazole-2-carboxamide] it was 2 nM; in that of `COCCN(C)Cc1ccc(N2CC(NC(=O)c3nnc(CCc4ccc(Cl)cc4)s3)CC2=O)cc1` (centres unmarked) [Compound F142, 5-[2-(4-chlorophenyl)ethyl]-N-[1-[4-[[2-methoxyethyl(methyl)amino]methyl]phenyl]-5-oxo-pyrrolidin-3-yl]-1,3,4-thiadiazole-2-carboxamide], 9 nM; in that of `CN(Cc1ccc(N2C[C@@H](C(=O)Nc3nnc(CCc4ccc(Cl)cc4)s3)CC2=O)cc1)C1CCOCC1` [Compound F90, (3S)-N-[5-[2-(4-chlorophenyl)ethyl]-1,3,4-thiadiazol-2-yl]-1-[4-[[methyl(tetrahydropyran-4-yl)amino]methyl]phenyl]-5-oxo-pyrrolidine-3-carboxamide], 1 nM.
Consider `O=C(Nc1cc(CCc2ccc(Cl)cc2)on1)C1CC(=O)N(c2ccc(CN3CCCCC3)cc2)C1` (stereo in doubt) [Compound F146, (3S)-N-[5-[2-(4-chlorophenyyl)ethyl]isoxazol-3-yl]-5-oxo-1-[4-(1-piperidylmethyl)phenyl] pyrrolidine-3-carboxamide], for which the IC50 came to 1 nM.
Turning to `O=C(Nc1nnc(CCC2CCCC2)s1)C1CC(=O)N(c2ccc(CN3CCCCC3)cc2)C1` (centres unmarked) [Compound F166, N-[5-(2-cyclopentylethyl)-1,3,4-thiadiazol-2-yl]-5-oxo-1-[4-(1-piperidylmethyl)phenyl] pyrrolidine-3-carboxamide], the IC50 is 16 nM.
Regarding `O=C(Nc1nnc(CCC2CCOCC2)s1)[C@H]1CC(=O)N(c2ccc(CN3CCCCC3)cc2)C1` [Compound F190, (3S)-5-oxo-1-[4-(1-piperidylmethyl)phenyl]-N-[5-(2-tetrahydropyran-4-ylethyl)-1,3,4-thiadiazol-2-yl]pyrrolidine-3-carboxamide], the IC50 amounted to 526 nM.
Consider `O=C(Nc1nnc(CCc2ccc(Cl)cc2)s1)[C@H]1CC(=O)N(c2ccc(CN3CC4CC4C3)cc2)C1` (stereo partly drawn) [Compound F103, (3S)-1-[4-(3-azabicyclo[3.1.0]hexan-3-ylmethyl)phenyl]-N-[5-[2-(4-chlorophenyl)ethyl]-1,3,4-thiadiazol-2-yl]-5-oxo-pyrrolidine-3-carboxamide], for which the IC50 came out at 3 nM.
With `O=C(Nc1cnc(CCc2ccccc2)s1)C1CC(=O)N(c2ccc(CN3CCOCC3)cc2)C1` (centres unmarked) [Compound F201, 1-[4-(morpholinomethyl)phenyl]-5-oxo-N-[2-(2-phenylethyl)thiazol-5-yl]pyrrolidine-3-carboxamide], the IC50 was determined as 1070 nM.
In the case of `O=C(Nc1nnc(CCc2ccc(Cl)cc2)s1)[C@H]1CC(=O)N(c2ccc(CN3CCCCC3)cc2)C1` [Compound F93, (3S)-N-[5-[2-(4-chlorophenyl)ethyl]-1,3,4-thiadiazol-2-yl]-5-oxo-1-[4-(1-piperidylmethyl)phenyl] pyrrolidine-3-carboxamide] it was 1 nM; in that of `O=C(Nc1ncc(CCc2ccccc2)s1)C1CC(=O)N(c2ccc(CN3CCOCC3)cc2)C1` (centres unmarked) [Compound F118, 1-[4-(morpholinomethyl)phenyl]-5-oxo-N-[5-(2-phenylethyl)thiazol-2-yl]pyrrolidine-3-carboxamide], 4 nM.
Under `CN(Cc1ccc(N2C[C@@H](C(=O)Nc3ccc(CCc4ccc(F)cc4)nn3)CC2=O)cc1)C1CCOCC1` [Compound F126, (3S)-N-[6-[2-(4-fluorophenyl)ethyl]pyridazin-3-yl]-1-[4-[[methyl(tetrahydropyran-4-yl)amino]methyl]phenyl]-5-oxo-pyrrolidine-3-carboxamide] stands 8 nM; under `O=C(NC1CC(=O)N(c2ccc(CN3CCOCC3)cc2)C1)c1nnc(CCc2ccc(Cl)cc2)s1` (centres unmarked) [Compound F128, 5-[2-(4-chlorophenyl)ethyl]-N-[1-[4-(morpholino-methyl)phenyl]-5-oxo-pyrrolidine-3-yl]-1,3,4-thiadiazole-2-carboxamide], 1 nM.
In the case of `O=C(Nc1nnc(CCc2ccc(Cl)cc2)s1)C1CC(=O)N(c2ccc(CN3CC4CC4C3)cc2)C1` (centres unmarked) [Compound F110, 1-[4-(3-azabicyclo[3.1.0]hexan-3-ylmethyl)phenyl]-N-[5-[2-(4-chlorophenyl)ethyl]-1,3,4-thiadiazol-2-yl]-5-oxo-pyrrolidine-3-carboxamide] it was 3 nM.
For the compound `O=C(Nc1nnc(CCC2CCCO2)s1)[C@H]1CC(=O)N(c2ccc(CN3CCCCC3)cc2)C1` (stereo partly drawn) [Compound F191, (3S)-5-oxo-1-[4-(1-piperidylmethyl)phenyl]-N-[5-(2-tetrahydrofuran-2-ylethyl)-1,3,4-thiadiazol-2-yl]pyrrolidine-3-carboxamide], the IC50 came out at 615 nM.
Under `COCCN(C)Cc1ccc(N2C[C@@H](C(=O)Nc3nnc(CCc4ccc(Cl)cc4)s3)CC2=O)cc1` [Compound F94, (3S)-N-[5-[2-(4-chlorophenyl)ethyl]-1,3,4-thiadiazol-2-yl]-1-[4-[[2-methoxyethyl(methyl)amino]methyl]phenyl]-5-oxo-pyrrolidine-3-carboxamide] stands 1 nM.
In the case of `O=C(NC1CC(=O)N(c2ccc(CN3CCCCC3)cc2)C1)c1nnc(NCc2ccc(Cl)cc2)s1` (centres unmarked) [Compound F196, 5-[(4-chlorophenyl)methyl-amino]-N-[5-oxo-1-[4-(1-piperidylmethyl)phenyl]pyrrolidin-3-yl]-1,3,4-thiadiazole-2-carboxamide] it was 103 nM; in that of `NCc1ccc(N2CC(C(=O)Nc3nnc(CCc4ccc(Cl)cc4)s3)CC2=O)cc1` (centres unmarked) [Compound F203, 1-(4-aminomethyl-phenyl)-5-oxo-pyrrolidine-3-carboxylic acid {5-[2-(4-chloro-phenyl)-ethyl]-[1,3,4]thiadiazol-2-yl}-amide], 385 nM; in that of `O=C(N[C@H]1CC(=O)N(c2ccc(CN3CCCCC3)cc2)C1)c1cc(CCc2ccc(F)cc2)on1` [Compound F174, 5-[2-(4-fluorophenyl)ethyl]-N-[(3S)-5-oxo-1-[4-(1-piperidylmethyl)phenyl]pyrrolidin-3-yl]isoxazole-3-carboxamide], 33 nM.
On to `O=C(Nc1ncc(COC2CCCCC2)s1)C1CC(=O)N(c2ccc(CN3CCOCC3)cc2)C1` (centres unmarked) [Compound F187, N-[5-(cyclohexoxymethyl)thiazol-2-yl]-1-[4-(morpholinomethyl)phenyl]-5-oxo-pyrrolidine-3-carboxamide], for which the IC50 was determined as 163 nM.
Under `CCCN(CCC)Cc1ccc(N2CC(C(=O)Nc3nnc(CCc4ccc(Cl)cc4)s3)CC2=O)cc1` (centres unmarked) [Compound F116, N-[5-[2-(4-chlorophenyl)ethyl]-1,3,4-thiadiazol-2-yl]-1-[4-[(dipropyl-amino)methyl]phenyl]-5-oxo-pyrrolidine-3-carboxamide] stands 3 nM; under `O=C(Nc1nnc(CCc2ccc(C(F)(F)F)cc2)s1)[C@H]1CC(=O)N(c2ccc(CN3CCOCC3)cc2)C1` [Compound F97, (3S)-1-[4-(morpholinomethyl)phenyl]-5-oxo-N-[5-[2-[4-(trifluoromethyl)phenyl]ethyl]-1,3,4-thiadiazol-2-yl]pyrrolidine-3-carboxamide], 2 nM; under `O=C(Nc1nnc(CCc2ccc(Cl)cc2)s1)C1CC(=O)N(c2ccc(CN3CCCCCC3)cc2)C1` (centres unmarked) [Compound F114, 1-[4-(azepan-1-ylmethyl)phenyl]-N-[5-[2-(4-chlorophenyl)ethyl]-1,3,4-thiadiazol-2-yl]-5-oxo-pyrrolidine-3-carboxamide], 3 nM.

By IC50 is commonly meant the concentration at which inhibition is half-maximal.
